# Measured values taken from patent US20170304288A1, “Formulations of Methionine Aminopeptidase Inhibitors for Treating Infectious Diseases” (Texas Southern University, priority 2013, published 2017).
# Read-outs that look alike come from different tables or passages of the source.
# Key:
# MtMetAP1a = MtMetAP1a (Mycobacterium tuberculosis, UniProt P9WK21); assay: MetAP enzyme inhibition IC50 (Met-Pro-pNA coupled assay); format: biochemical
# MtMetAP1c = MtMetAP1c (Mycobacterium tuberculosis, UniProt P9WK19); assay: as above; format: biochemical
# Method: A primary high throughput screen was conducted using MAP-C2 microplate processor (Titertek Instruments, Inc., Huntsville, Ala. USA). A library of 175,000 compounds at 30 μM were assayed in a 384 well plates using a dipeptide chromogenic substrate, methionine-proline coupled to p-Nitroaniline (Met-Pro-pNA). Each compound was dissolved in DMSO and stored at −20° C. until use. The total reaction volume was 50 μL, and each reaction contained 40 mM HEPES buffer (pH 7.5), 100 mM NaCl, […], 0.1 U/mL ProAP, 1.5 mM CoCl2, […] (Met-Pro-pNA), and 252 nM MtMetAP1c. The enzyme was pre-incubated with compounds for 20 minutes at room temperature followed by addition of […]. The reaction was then incubated at room temperature for 30 min and monitored at 405 nm on a spectrophotometer.
# (§1) The enzyme was pre-incubated with compounds for 20 minutes at room temperature followed by addition of substrate. The reaction was incubated at room temperature for 30 min and monitored at 405 nm on a spectrophotometer. The background hydrolysis was subtracted and the data was fitted to a four-parameter logistic (variable slope) equation using GraphPad Prism software.
# M. tuberculosis CDC 1551 = assay: Minimum Inhibitory Concentration in replicating M. tuberculosis; format: cell-based, Mycobacterium tuberculosis; conditions: replicating culture; for MIC: Mycobacterium tuberculosis, CDC1551, read-out: Minimum Inhibitory Concentration Wild-type M. tuberculosis Strain CDC1551
# M. bovis BCG = format: cell-based, Mycobacterium bovis; conditions: for CFU from cellular lysates (intracellular M. bovis BCG): 7 d p.i., RIF 5.0 μg/mL, INH 0.1 μg/mL
# EfMetAP1 = target: T1, EfMetAP1 (Enterococcus faecalis, UniProt Q832M5); assay: EfMetAP1 inhibition, coupled methionine-proline aminopeptidase assay; format: biochemical, E. faecalis
# T1 sequence (Q832M5 1-254): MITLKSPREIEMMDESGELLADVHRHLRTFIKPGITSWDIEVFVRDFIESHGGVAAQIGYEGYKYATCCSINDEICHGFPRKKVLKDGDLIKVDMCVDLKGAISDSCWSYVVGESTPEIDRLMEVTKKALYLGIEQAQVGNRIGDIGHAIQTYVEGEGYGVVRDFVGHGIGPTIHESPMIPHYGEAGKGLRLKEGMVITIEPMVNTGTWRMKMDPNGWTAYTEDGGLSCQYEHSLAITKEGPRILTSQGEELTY
# Method: 175,000 compounds were screened against EfMetAP1, using the coupled methionine-proline aminopeptidase spectrophotometric assay (FIG. 7A). The primary screen was performed at final concentrations of 30 μM in 384-well plates using a titertek instrument with liquid handling capabilities coupled to a spectrophotometer. The compounds were dissolved in dimethylsulfoxide (DMSO) and the total reaction volume was 50 μL where each reaction contained 40 mM Hepes buffer (pH 7.5), 100 mM NaCl, 100 μg/mL BSA, 0.1 U/mL ProAP, 1.5 mM CoCl2, 600 μM substrate (Met-Pro-pNA), and 1.38 μM EfMetAP1. The Enzyme was pre-incubated with compounds for 20 min at room temperature followed by addition of substrate. The reaction was incubated at room temperature for 30 min and monitored at 405 nm on a spectrophotometer. […] The background hydrolysis was corrected and the data was fitted against the sigmoidal-dose response (variable slope) equation using GraphPad prism software.
# M. tuberculosis H37Ra = assay: Activity against dormant (aged non-growing) M. tuberculosis, XTT; format: cell-based, Mycobacterium tuberculosis; conditions: for MIC: Mycobacterium tuberculosis, H37RA, read-out: MIC dormant M. tuberculosis Strain H37Ra
# Method: The activity of the compounds in aged non-growing M. tuberculosis was achieved using a perister model at concentrations […] and monitored for three weeks. Briefly, 2 month old M. tuberculosis H37Ra culture was grown in 7H9 medium (Difco) with 10% albumin dextrose catalase (ADC) and 0.05% Tween 80. […] The compound was diluted from a 10 mM (in DMSO) to 10 μM (final concentration) and incubated with the bacilli in […] 7H9 medium (pH 5.5) without ADC in a 96-well plate for three days without shanking under 1% oxygen in a hypoxic chamber. This assay was performed in duplicates with Rifampin (5 mg/mL). Following a 3 day drug exposure, bacilli viability was determined by adding […] of 1 mg/mL of XTT (2,3-bis-(2-methoxy-4-nitro-5-sulfophenyl)-2H-tetrazolium-5-carboxanilide) and incubated at 37° C. for up to 7 days. The 96 well plates were then read at OD 485 nm.
# HsMetAP1 = HsMetAP1 (Homo sapiens, UniProt P53582); assay: MetAP enzyme inhibition IC50; format: biochemical
# Method: as §1
# HsMetAP2 = HsMetAP2 (Homo sapiens, UniProt P50579); assay: MetAP enzyme inhibition IC50; format: biochemical
# Method: as §1
# HIV-1 (89.6 strain) = assay: microbe, parasite or virus in culture; format: cell-based; conditions: for inhibition of HIV-1 p24 antigen production: HIV-1 infected PBMC, ELISA; for inhibitory concentration equivalent to negative control (blank): p24 ELISA; for IC50: Human immunodeficiency virus 1, PBMC, read-out: concentration required for 50% inhibition of HIV1 p24 produced, primary screen, preliminary
# [1] = system: L. major promastigotes over-expressing LmMetAP1; assay: Leishmania major luciferase assay, promastigotes over-expressing LmMetAP1; format: cell-based; conditions: read-out: L. major promastigotes over-expressing LmMetAP1 EC50
# Method: (§2) Compounds were screened against L. major strain friedlin clone V1 promastigotes expressing firefly luciferase at concentrations ranging from 100 μM-780 nM in a 96 well plate. These experiments were done in triplicates using L. major media and 10^6 parasites per well. The plates were incubated for 24, 48, 72 and 96 hours at 28° C. Amphotericin B (AB) was used as a positive control at 5 μM as a comparison to the leishmanicidal activity of the inhibitors. The inhibitory effects of the compounds were assessed by monitoring parasite survival through luciferase activity. The substrate 5′-fluoroluciferin (ONE-Glo Luciferase Assay System, Promega, Madison, Wis.) was added according to the manufacturer's protocol after each time point. The plates were read using a luminometer (Luminoskan, Thermo Scientific, Rockford, Ill.). Data was analyzed using GraphPad Prism Software (GraphPad Software, Inc., La Jolla, Calif.).
# LmMetAP1 was cloned in the Leishmania expression vector pXG, and parasites were transfected. The parasites overexpressing LmMetAP1 were selected for and cloned.
# LmMetAP1 = target: T2, LmMetAP1 (Leishmania major, UniProt Q4QDG7); assay: LmMetAP1 enzyme inhibition (l-Met-pNA); format: biochemical
# T2 sequence (Q4QDG7 1-401): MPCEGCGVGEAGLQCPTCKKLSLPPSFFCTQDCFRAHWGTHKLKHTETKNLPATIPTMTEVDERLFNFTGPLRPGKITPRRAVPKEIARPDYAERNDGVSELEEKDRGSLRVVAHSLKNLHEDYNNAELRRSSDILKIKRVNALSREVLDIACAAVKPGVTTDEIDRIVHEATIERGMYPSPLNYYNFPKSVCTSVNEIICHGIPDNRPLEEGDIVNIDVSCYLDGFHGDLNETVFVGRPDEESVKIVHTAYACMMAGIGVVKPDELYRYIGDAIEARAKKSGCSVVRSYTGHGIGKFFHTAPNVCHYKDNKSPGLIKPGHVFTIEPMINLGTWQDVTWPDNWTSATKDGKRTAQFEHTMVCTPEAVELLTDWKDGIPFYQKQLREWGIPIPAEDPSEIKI
# Excerpt: After cloning, overexpressing and purifying the protein to near homogeneity, the chromogenic substrate I-methionine-p-nitroanalide (I-Met-pNA) (Sigma) was used to determine inhibition of the enzyme using various compounds (Mitra et al. 2006).
# [2] = system: Wild-type L. major promastigotes; assay: Leishmania major luciferase assay, wild type promastigotes; conditions: read-out: Wild-type L. major promastigotes EC50
# Method: Promastigote forms of L. major strain Friedlin clone V1 expressing firefly luciferase were grown in M199 medium supplemented with hemin and 10% fetal bovine serum (FBS) inactivated at 56° C. for 30 minutes and treated with 50 ng/mL streptothricin neosulfate for maintenance of LUC gene.
# as §2
# HIV-1 transcription = conditions: Debebe et. al. 2007; cited from earlier work
# E. faecalis OG1RF [3] = assay: Liquid-based C. elegans infection model, survival; format: in vivo, Enterococcus faecalis; conditions: C. elegans
# E. faecalis V583 [4] = assay: Liquid-based C. elegans infection model, survival
# E. faecalis OG1RF [5] = assay: Assay of E. faecalis inhibition (MIC) in BHI culture; conditions: Enterococcus faecalis, read-out: Minimum Inhibitory Concentration MIC30 OG1RF
# E. faecalis V583 [6] = assay: as above
# C. elegans = assay: Toxicity in non-infected C. elegans; conditions: 10 μg/mL
# Sequence of HsMetAP2 (P50579 whole entry): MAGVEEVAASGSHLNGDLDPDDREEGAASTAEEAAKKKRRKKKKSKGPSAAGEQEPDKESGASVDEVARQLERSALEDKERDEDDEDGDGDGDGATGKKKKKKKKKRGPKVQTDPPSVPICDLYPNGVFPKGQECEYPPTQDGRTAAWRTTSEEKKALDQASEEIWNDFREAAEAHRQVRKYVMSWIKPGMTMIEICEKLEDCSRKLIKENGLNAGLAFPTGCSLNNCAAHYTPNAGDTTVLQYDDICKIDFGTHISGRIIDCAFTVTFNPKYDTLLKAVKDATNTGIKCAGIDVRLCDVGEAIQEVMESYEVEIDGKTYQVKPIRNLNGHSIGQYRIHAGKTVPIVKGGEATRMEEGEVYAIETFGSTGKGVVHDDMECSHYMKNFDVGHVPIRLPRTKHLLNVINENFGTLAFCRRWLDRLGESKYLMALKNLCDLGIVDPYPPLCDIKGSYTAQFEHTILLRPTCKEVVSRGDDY
# Sequence of MtMetAP1c (P9WK19 whole entry): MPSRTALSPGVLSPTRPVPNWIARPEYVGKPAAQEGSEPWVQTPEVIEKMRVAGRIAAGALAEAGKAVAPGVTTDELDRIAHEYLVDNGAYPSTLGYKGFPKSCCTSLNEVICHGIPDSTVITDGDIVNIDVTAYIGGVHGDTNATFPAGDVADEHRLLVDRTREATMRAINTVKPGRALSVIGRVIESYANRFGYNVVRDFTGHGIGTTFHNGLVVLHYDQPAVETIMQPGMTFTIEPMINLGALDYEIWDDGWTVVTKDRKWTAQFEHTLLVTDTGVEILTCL
# Sequence of MtMetAP1a (P9WK21 whole entry): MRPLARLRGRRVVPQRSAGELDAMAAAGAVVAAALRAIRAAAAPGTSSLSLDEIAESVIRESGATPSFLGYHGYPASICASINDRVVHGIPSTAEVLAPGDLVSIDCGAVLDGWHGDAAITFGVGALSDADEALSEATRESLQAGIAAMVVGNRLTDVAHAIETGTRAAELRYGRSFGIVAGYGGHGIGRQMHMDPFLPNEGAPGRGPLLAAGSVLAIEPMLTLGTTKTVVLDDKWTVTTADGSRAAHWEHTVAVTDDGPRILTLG
compound,measurement,setting,value
Oc1ccccc1/C=N/Nc1ncnc2sc3c(c12)CCCC3 [drawing 23],IC50,MtMetAP1a,< 30 µM
same,IC50,MtMetAP1c,< 30 µM
same,Minimum Inhibitory Concentration Wild-type M. tuberculosis Strain CDC1551,M. tuberculosis CDC 1551,<10.0 µg/mL
"CO[C@H]1/C=C/O[C@@]2(C)Oc3c(C)c(O)c4c(O)c(c(/C=N/N5CCN(C)CC5)c(O)c4c3C2=O)NC(=O)/C(C)=C\C=C\[C@H](C)[C@H](O)[C@@H](C)[C@@H](O)[C@@H](C)[C@H](OC(C)=O)[C@@H]1C [RIF, Rifampicin]",CFU from cellular lysates (intracellular M. bovis BCG),M. bovis BCG,dramatically reduced CFU
same,intracellular BCG by flow cytometry,"M. bovis BCG; macrophages, 7 days",Reduction
Oc1c(I)cc(Cl)c2cccnc12 [drawing 38],IC50,EfMetAP1,18.4 µM
Oc1ccccc1/C=N/Nc1ncnc2sc3c(c12)CCCC3 [drawing 26],MIC,M. tuberculosis H37Ra,25 µM
O=C(N/N=C/c1c(O)ccc2ccccc12)c1ccncc1 [drawing 25],MIC,M. tuberculosis H37Ra,6.25 µM
Oc1c(Br)cc(Cl)c2cccnc12 [drawing 36],IC50,EfMetAP1,12 µM
O=C(N/N=C/c1c(O)ccc2ccccc12)c1ccncc1 [drawing 22],IC50,MtMetAP1a,4.9 µM
same,IC50,MtMetAP1c,5.3 µM
same,IC50,HsMetAP1,315 µM
same,IC50,HsMetAP2,146 µM
same,Minimum Inhibitory Concentration Wild-type M. tuberculosis Strain CDC1551,M. tuberculosis CDC 1551,<10.0 µg/mL
CC(=O)Oc1c(Cl)cc(Cl)c2cccnc12,IC50,EfMetAP1,14.6 µM
"Cc1nc(-c2ccccn2)nc(N(C)Cc2ccccc2)c1Cl [Compound 3, N-benzyl-5-chloro-N,6-dimethyl-2-(pyridin-2-yl)pyrimidin-4-amine]",inhibition of HIV-1 p24 antigen production,HIV-1 (89.6 strain),inhibited p24 antigen productions in a dose dependent manner
same,MIC,M. tuberculosis CDC 1551,< 5 µg/mL
same,EC50,[1],5 µM
same,IC50,LmMetAP1,> 1 µM
same,EC50,[2],0.243 µM
Cc1nc(-c2ccccn2)nc(N(C)Cc2ccccc2)c1Cl [drawing 24],Minimum Inhibitory Concentration Wild-type M. tuberculosis Strain CDC1551,M. tuberculosis CDC 1551,<5.0 µg/mL
"O=C(N/N=C/c1c(O)ccc2ccccc12)c1ccncc1 [Compound 1, 2-hydroxy-1-naphthylaldehyde isonicotinoyl hydrazone]",IC50,HsMetAP1,315 µM
same,IC50,HsMetAP2,146 µM
same,inhibition of HIV-1 p24 antigen production,HIV-1 (89.6 strain),inhibited the production of HIV-1 p24 antigen in a dose response manner
same,inhibitory concentration equivalent to negative control (blank),HIV-1 (89.6 strain),274.0 nM
same,MIC,M. tuberculosis CDC 1551,< 10 µg/mL
same,concentration that perturbed the growth of aged non-growing Mtb bacilli,M. tuberculosis H37Ra; XTT,1.82 µg/mL
same,EC50,[1],> 10 µM
same,IC50,LmMetAP1; read-out: MetAP IC50 LmMetAP1,10 to 100 µM
same,IC50,HIV-1 transcription,2 µM
same,EC50,[2],0.64 µM
"Oc1ccccc1/C=N/Nc1ncnc2sc3c(c12)CCCC3 [Compound 2, 2-{(E)-[2-(5,6,7,8-tetrahydro[1]benzothieno[2,3-d]pyrimidin-4-yl)hydrazinylidene]methyl}phenol]",inhibition of HIV-1 p24 antigen production,HIV-1 (89.6 strain),inhibited p24 antigen productions in a dose dependent manner
same,inhibitory concentration equivalent to negative control (blank),HIV-1 (89.6 strain),234.0 nM
same,MIC,M. tuberculosis CDC 1551,< 10 µg/mL
same,EC50,[1],9 µM
same,IC50,LmMetAP1,> 2.5 µM
same,EC50,[2],0.375 µM
"Clc1cc2c(c3ncccc13)OCN(C1CCCCC1)C2 [Compound 8, 6-chloro-3-cyclohexyl-3,4-dihydro-2H-[1,3]oxazino[5,6-h]quinolin]",IC50,HIV-1 (89.6 strain),> 3.75 µM
same,IC50,EfMetAP1,5.24 µM
same,MPC (Minimum Protective Concentration) OG1RF,E. faecalis OG1RF [3],4e-11 µg/mL
same,MmaxPC (Maximum Protective Concentration) OG1RF,E. faecalis OG1RF [3],4e-08 µg/mL
same,MPC (Minimum Protective Concentration) V583,E. faecalis V583 [4],4e-11 µg/mL
same,MIC,E. faecalis OG1RF [5],5 to 10 µg/mL
same,Minimum Inhibitory Concentration MIC30 V583,E. faecalis V583 [6],0.50 to 1.50 µg/mL
same,MIC,"E. faecalis V583 [6]; Enterococcus faecalis, V583, read-out: Minimum Inhibitory Concentration MIC30 V583",0.5 to 1.5 µg/mL
"NNC(=O)c1ccncc1 [Isoniazid, reference compound]",IC50,HIV-1 (89.6 strain),> 2 µM
same,CFU from cellular lysates (intracellular M. bovis BCG),M. bovis BCG,dramatically reduced CFU
CN(C)[C@@H]1C(O)=C(C(N)=O)C(=O)[C@@]2(O)C(O)=C3C(=O)c4c(O)cccc4[C@@](C)(O)[C@H]3C[C@@H]12 [tetracycline],survival of non-infected animals,C. elegans,did not decrease survival
